# Assay results from patent US20210045385A1, “PYRIDAZINONE-SUBSTITUTED KETOXIMES AS HERBICIDES” (FMC Corporation, priority 2018, published 2021).
# Experiments:
# [1] = tested on: Italian ryegrass (Lolium multiflorum); assay: Test A preemergence, visual plant response rating; format: in vivo
# Summary of the method: (§1)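 Greenhouse pot test in loam–sand soil mix: compound in a surfactant-containing non-phytotoxic solvent applied preemergence (directed soil spray) or postemergence (one- to two-leaf plants, 2–10 cm). Injury scored visually after ~10 days, 0–100.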
# [2] = tested on: barnyardgrass (Echinochloa crus-galli); assay: Test A preemergence, visual plant response rating; format: in vivo
# Summary of the method: as §1
# [3] = tested on: foxtail, giant (giant foxtail, Setaria faberii); assay: Test A preemergence, visual plant response rating; format: in vivo
# Summary of the method: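 Ratings 0–100 (100 = complete control), visual, vs untreated controls at ~10 days. Application pre- or postemergence; solvent mixture with surfactant; loam/sand medium.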
# kochia (Kochia scoparia) [4] = assay: Test A preemergence, visual plant response rating; format: in vivo
# Summary of the method: as §1
# [5] = tested on: pigweed (Amaranthus retroflexus); assay: Test A preemergence, visual plant response rating; format: in vivo
# Summary of the method: as §1
# [6] = tested on: Italian ryegrass (Lolium multiflorum); assay: Test A postemergence, visual plant response rating; format: in vivo
# Summary of the method: as §1
# [7] = tested on: barnyardgrass (Echinochloa crus-galli); assay: Test A postemergence, visual plant response rating; format: in vivo
# Summary of the method: as §1
# [8] = tested on: blackgrass (Alopecurus myosuroides); assay: Test A postemergence, visual plant response rating; format: in vivo
# Summary of the method: as §1
# corn (Zea mays) = assay: Test A postemergence, visual plant response rating; format: in vivo
# Summary of the method: as §1
# [9] = tested on: foxtail, giant (giant foxtail, Setaria faberii); assay: Test A postemergence, visual plant response rating; format: in vivo
# Summary of the method: as §1
# [10] = tested on: galium (catchweed bedstraw, Galium aparine); assay: Test A postemergence, visual plant response rating; format: in vivo
# Summary of the method: as §1
# kochia (Kochia scoparia) [11] = assay: Test A postemergence, visual plant response rating; format: in vivo
# Summary of the method: as §1
# [12] = tested on: pigweed (Amaranthus retroflexus); assay: Test A postemergence, visual plant response rating; format: in vivo
# Summary of the method: as §1
# [13] = tested on: ragweed (common ragweed, Ambrosia elatior); assay: Test A postemergence, visual plant response rating; format: in vivo
# Summary of the method: as §1
# [14] = tested on: wheat (Triticum aestivum); assay: Test A postemergence, visual plant response rating; format: in vivo
# Summary of the method: as §1
# [15] = tested on: barnyardgrass (Echinochloa crus-galli); assay: Test B flooded paddy test, visual plant response rating; format: in vivo; conditions: 250 g ai/ha, Flood, applied to paddy water, 2-leaf stage, evaluated after 13 to 15 days
# Summary of the method: (§2)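 Seedlings at 2 leaves; compound into paddy water (3 cm flood, maintained); 13–15 d greenhouse; visual score relative to controls.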
# [16] = tested on: ducksalad (Heteranhera limosa); assay: as above; format: in vivo; conditions: 250 g ai/ha, Flood, applied to paddy water, 2-leaf stage, evaluated after 13 to 15 days
# Summary of the method: as §2
# rice (Oryza sativa) = assay: as above; format: in vivo; conditions: 250 g ai/ha, Flood, applied to paddy water, 2-leaf stage, evaluated after 13 to 15 days
# Summary of the method: as §2
# [17] = tested on: sedge, umbrella (small-flower umbrella sedge, Cyperus difformis); assay: as above; format: in vivo; conditions: 250 g ai/ha, Flood, applied to paddy water, 2-leaf stage, evaluated after 13 to 15 days
# Summary of the method: as §2
# [18] = 125 g ai/ha, preemergence, 0 to 100 scale, 0 no effect, 100 complete control
# [19] = 500 g ai/ha Preemergence, approx. 10 days
# [20] = 500 g ai/ha, postemergence, 0 is no effect, 100 is complete control
# [21] = Postemergence, 125 g ai/ha, 0 to 100 scale (0 no effect, 100 complete control)
smiles,measurement,setting,value
"CO/N=C(\c1c(O)c(C)nn(C)c1=O)c1cc(Br)cc2ccccc12 [Compound 91, 4-[(Z)-(3-bromo-1-naphthalenyl)(methoxyimino)methyl]-5-hydroxy-2,6-dimethyl-3(2H)-pyridazinone]","Ryegrass, Italian plant response rating",[1]; [18],80
same,"Ryegrass, Italian plant response rating (0 to 100 scale)",[1]; [19],100
same,Barnyardgrass plant response rating,[2]; [18],100
same,Barnyardgrass plant response rating (0 to 100 scale),[2]; [19],100
same,"Foxtail, Giant plant response rating",[3]; [18],100
same,"Foxtail, Giant plant response rating (0 to 100 scale)",[3]; [19],100
same,Kochia plant response rating,kochia (Kochia scoparia) [4]; [18],60
same,Kochia plant response rating (0 to 100 scale),kochia (Kochia scoparia) [4]; [19],60
same,Pigweed plant response rating,[5]; [18],100
same,Pigweed plant response rating (0 to 100 scale),[5]; [19],100
same,"Ryegrass, Italian plant response rating (0 to 100 scale)",[6]; [20],100
same,"Ryegrass, Italian plant response rating",[6]; [21],100
same,Barnyardgrass plant response rating (0 to 100 scale),[7]; [20],80
same,Barnyardgrass plant response rating,[7]; [21],80
same,Blackgrass plant response rating (0 to 100 scale),[8]; [20],100
same,Blackgrass plant response rating,[8]; [21],100
same,Corn plant response rating (0 to 100 scale),corn (Zea mays); [20],70
same,Corn plant response rating,corn (Zea mays); [21],30
same,"Foxtail, Giant plant response rating (0 to 100 scale)",[9]; [20],90
same,"Foxtail, Giant plant response rating",[9]; [21],80
same,Galium plant response rating (0 to 100 scale),[10]; [20],100
same,Galium plant response rating,[10]; [21],100
same,Kochia plant response rating (0 to 100 scale),kochia (Kochia scoparia) [11]; [20],80
same,Kochia plant response rating,kochia (Kochia scoparia) [11]; [21],60
same,Pigweed plant response rating (0 to 100 scale),[12]; [20],90
same,Pigweed plant response rating,[12]; [21],80
same,Ragweed plant response rating (0 to 100 scale),[13]; [20],100
same,Ragweed plant response rating,[13]; [21],100
same,Wheat plant response rating (0 to 100 scale),[14]; [20],80
same,Wheat plant response rating,[14]; [21],50
same,"Plant response rating, Barnyardgrass (0 to 100 scale, 0 is no effect, 100 is complete control)",[15],65
same,"Plant response rating, Ducksalad (0 to 100 scale, 0 is no effect, 100 is complete control)",[16],60
same,"Plant response rating, Rice (0 to 100 scale, 0 is no effect, 100 is complete control)",rice (Oryza sativa),20
same,"Plant response rating, Sedge, Umbrella (0 to 100 scale, 0 is no effect, 100 is complete control)",[17],60
same,melting point,,129 to 133 °C
